Measured values as given in patent EP0300812A2, “Platinum triamine antitumor agents containing saturated amines” (ENGELHARD CORPORATION, priority 1987, dated 1989).
Values joined by “and” are separate entries in the source; they are usually repeats but may differ in a detail not shown here. Identical values can stand only once.

Tests used:
[1] = system: Sarcoma 180 ascites; experiment: Sarcoma 180 ascites antitumor screening; format: in vivo, Female CFW mice; settings: for %ILS: ILS ≧ 50% indicates activity; for Surv.: survivors per 6 mice at twice the MST of controls
Procedure: (§1) Each compound was evaluated in at least one of these screens.
Female CFW mice (18 - 25 g) were implanted with 2 x 10⁶ cells ip on day zero. Compounds were administered in 0.5 mL water ip on day one. Groups of 6 mice were used for each test dose as well as controls as defined above. The test was run for twice the MST of the control group, with survivors counted as dying on that day. An ILS of ≧ 50% indicates activity. The tumor line was maintained through weekly transfer of 4 x 10⁶ cells in CFW mice.

[2] = system: L1210 Leukemia; experiment: L1210 leukemia antitumor screening; format: in vivo, Female CDF₁ mice; settings: for %ILS: ILS ≧ 25% represents activity; for Surv.: survivors per 6 mice at three times the MST of controls
Procedure: as §1
L1210 screening was conducted according to a published method. See Rose, W.C.; Schurig, J.F.; Huftalen, J.B.; Bradner, W.T. Cancer Treat. Rep. […] Female CDF₁ mice (16 - 22 g) were implanted with 1 x 10⁶ tumor cells ip on day zero. Compounds were administered in 0.5 mL water ip on day one. Groups of 6 mice were used for each dose. A control group received only tumor and 0.5 mL water. A positive control group received tumor and 8 mg/kg cisplatin in 0.5 mL of 0.15 M NaCl. The test was terminated after three times the mean survival time (MST) of the control group, surviving mice were counted as dying on that day. Activity was determined based on the percent increase in MST of test mice over controls (%ILS). […] The tumor line was maintained through weekly transfer of 5 x 10⁴ cells in DBA/2 mice.

[3] = S180a, dose 10 mg/kg ip in water on day one
[4] = S180a, dose 20 mg/kg ip in water on day one
[5] = S180a, dose 40 mg/kg ip in water on day one
[6] = S180a, dose 80 mg/kg ip in water on day one
[7] = S180a, dose 160 mg/kg ip in water on day one
[8] = S180a, dose 320 mg/kg ip in water on day one

Molecule: CC1CCNCC1.N.N.O=[N+]([O-])[O-].[Cl-].[Pt+2] [cis-[Pt(NH3)2(4-methylpiperidine)Cl]NO3, cis-[Pt(NH₃)₂(4-methylpiperidine)Cl]NO₃]
- %ILS [1, 3]: 4%
- Surv. ([1]; S180a, dose 10 mg/kg ip): 0/6
- %ILS [1, 4]: 13%
- Surv. ([1]; S180a, dose 20 mg/kg ip): 0/6
- %ILS [1, 5]: 18%
- Surv. ([1]; S180a, dose 40 mg/kg ip): 0/6
- %ILS [1, 6]: 76%
- Surv. ([1]; S180a, dose 80 mg/kg ip): 1/6
- %ILS [1, 7]: 4%
- Surv. ([1]; S180a, dose 160 mg/kg ip): 1/6
- %ILS [1, 8]: -80%
- Surv. ([1]; S180a, dose 320 mg/kg ip): 0/6
- %ILS ([2]; L1210, dose 10 mg/kg ip in water on day one): 24%
- Surv. ([2]; L1210, dose 10 mg/kg ip): 0/6
- %ILS ([2]; L1210, dose 20 mg/kg ip in water on day one): 17%
- Surv. ([2]; L1210, dose 20 mg/kg ip): 0/6
- %ILS ([2]; L1210, dose 40 mg/kg ip in water on day one): 60%
- Surv. ([2]; L1210, dose 40 mg/kg ip): 0/6
- %ILS ([2]; L1210, dose 80 mg/kg ip in water on day one): 57%
- Surv. ([2]; L1210, dose 80 mg/kg ip): 0/6
- %ILS ([2]; L1210, dose 160 mg/kg ip in water on day one): -28%
- Surv. ([2]; L1210, dose 160 mg/kg ip): 0/6
- %ILS ([2]; L1210, dose 320 mg/kg ip in water on day one): -68%
- Surv. ([2]; L1210, dose 320 mg/kg ip): 0/6

Molecule: CCCCCCCC[NH2+][Pt-2]([NH3+])([NH3+])[Cl].O=[N+]([O-])[O-] [cis-[Pt(NH3)2(octylamine)Cl]NO3, cis-[Pt(NH₃)₂(octylamine)Cl]NO₃]
- %ILS [1, 3]: 16%
- Surv. ([1]; S180a, dose 10 mg/kg ip): 0/6
- %ILS [1, 4]: 25%
- Surv. ([1]; S180a, dose 20 mg/kg ip): 0/6
- %ILS [1, 5]: 22%
- Surv. ([1]; S180a, dose 40 mg/kg ip): 0/6
- %ILS [1, 6]: -78%
- Surv. ([1]; S180a, dose 80 mg/kg ip): 0/6
- %ILS [1, 7]: -78%
- Surv. ([1]; S180a, dose 160 mg/kg ip): 0/6
- %ILS [1, 8]: -95%
- Surv. ([1]; S180a, dose 320 mg/kg ip): 0/6
- activity in the S-180 ascites screen ([1]; statement in words): substantially no activity

Molecule: O=[N+]([O-])[O-].[NH3+][Pt-2]([NH3+])([Cl])[NH2+]CC1CCCCC1 (stereo not drawn) [cis-[Pt(NH₃)₂(cyclohexanemethylamine)Cl]NO₃]
- %ILS [1, 3]: 15%
- Surv. ([1]; S180a, dose 10 mg/kg ip): 0/6
- %ILS [1, 4]: 22%
- Surv. ([1]; S180a, dose 20 mg/kg ip): 0/6
- %ILS [1, 5]: 19%
- Surv. ([1]; S180a, dose 40 mg/kg ip): 1/6
- %ILS [1, 6]: 61%
- Surv. ([1]; S180a, dose 80 mg/kg ip): 0/6
- %ILS [1, 7]: -78%
- Surv. ([1]; S180a, dose 160 mg/kg ip): 0/6
- %ILS [1, 8]: -94%
- Surv. ([1]; S180a, dose 320 mg/kg ip): 0/6

Molecule: cis-[Pt(NH₃)₂Cl₂] [Positive Control, reference compound]
- Positive Control %ILS ([1]; S180a, positive control 8 mg/kg cisplatin in 0.15 M NaCl ip): 65% and 80%
- Positive Control Surv. ([1]; S180a, positive control 8 mg/kg cisplatin in 0.15 M NaCl ip, survivors per 6 mice): 1/6 and 3/6
- Positive Control %ILS ([2]; L1210, positive control 8 mg/kg cisplatin in 0.15 M NaCl ip): 149%
- Positive Control Surv. ([2]; L1210, positive control 8 mg/kg cisplatin in 0.15 M NaCl ip, survivors per 6 mice): 2/6
